The numbers were not newly measured in patent publication US20170326180A1, “Demineralized Bone Matrix Material having Allogenic Sphingosine-1-Phosphate” (DePuy Synthes Products, Inc., priority 2016, published 2017), which cites them from elsewhere.

The data set concerns mesenchymal stem cells. The settings on record: solution having 0.1 and 1 uM C1P; reported by Kim.

Regarding ceramide-1-phosphate [C1P], the “chemotactic activity for mesenchymal stem cells” value is on record as “chemotactic activity”.
